Columns and labels:
[1] = system: mice exposed to 9.6 Gy 60Co-γ-radiation; assay: Thirty-day survival of mice given amifostine before 9.6 Gy 60Co-γ-radiation (cohort 3); assay type: in vivo, mouse
Procedure: (§1) Cohort three comprised whole blood samples from mice exposed to a single dose of 9.6 Gy ^60Co-γ-radiation at a rate of 0.6 Gy/minute in the presence or absence of drug intervention (50 mg/kg or 200 mg/kg amifostine). A total of 300 blood samples were collected from 60 mice divided into five groups (12 mice per group). The five groups correspond to: (1) amifostine dosage of 50 mg/kg without radiation exposure, (2) amifostine dosage of 200 mg/kg without radiation exposure, (3) amifostine dosage of 50 mg/kg with radiation exposure, (4) amifostine dosage of 200 mg/kg with radiation exposure, and (5) a radiation exposure without an amifostine treatment. Blood samples were collected at five time-points: at day −5 (D−5), at time of amifostine dosage, day −1 (D−1), day 1 (D1), day 5 (D5) and day 9 (D9). Amifostine was delivered through a subcutaneous injection.
Lastly, to evaluate the radioprotective impact of amifostine treatment, cohort three also contained mice that received a subcutaneous injection of either 50 mg/kg or 200 mg/kg of amifostine 30 minutes (+10 minutes) before exposure to radiation. A total of 300 samples were collected from 60 mice divided into five groups (n=12): (1) 50 mg/kg amifostine treatment without radiation exposure (Am50), (2) 200 mg/kg amifostine treatment without radiation exposure (Am200), (3) only 9.6 Gy radiation exposure (RAD), (4) 9.6 Gy radiation exposure with a 50 mg/kg amifostine treatment (RAD+Am50), and (5) 9.6 Gy radiation exposure with a 200 mg/kg amifostine treatment (RAD+Am200). Serum samples were collected from each group at five different time points. Serum collected at five days and one day prior to radiation exposure were used as controls, and serum samples for metabolomics analysis were collected at 1, 5 and 9 days post-irradiation (Table 1).
Furthermore, an incremental decrease in survival began at day 11.

[2] = system: mouse whole blood metabolome; assay: Combined NMR and LC-MS metabolomics of mouse whole blood, metabolic time trajectories (cohort 3); assay type: in vivo; conditions: for NMR metabolic time trajectory of whole blood after radiation: PLS Q2 against D−5 baseline
Procedure: as §1
Mouse (n=236) and NHP (n=70) serum samples, and mouse blood samples (n=300) were simultaneously prepared for LC-MS and NMR analysis as shown in FIG. 1C. 2.0% by volume of NaN3 was added to each serum or blood sample to avoid bacterial growth. The protein component was precipitated by adding 100 μL (2×) of methanol to 50 μL of serum or blood. Deoxygenated methanol was used for the blood preparation to avoid unnecessary oxidation of the red blood cells. Methanol was purged of oxygen by bubbling in nitrogen gas for 30 minutes.
The 1:2 mixtures were then vortexed for 10 seconds. Serum samples were incubated at room temperature for 5 minutes. Blood samples were sonicated in a water bath for 10 minutes at 4° C., followed by incubation at −20° C. for 20 minutes. The samples were then centrifuged at 15,000×g for 20 minutes at 4° C. to pellet the proteins. The supernatant was collected, transferred to an Eppendorf tube, and centrifuged again at 15,000×g for 5 minutes at 4° C. The supernatant was then divided 20% and 80% for LC-MS and NMR samples, respectively. Samples were snap-frozen in liquid nitrogen. Methanol was evaporated by speed vacuum centrifugation (SpeedVac R Plus, Savant) and water was removed by lyophilization using FreeZone™ (Labconco, Kansas City, MO).
Dried serum or blood samples were reconstituted using 50 μL of 50 mM phosphate buffer in 100% D20 at pH 7.2 (uncorrected) with 50 μM TMSP as an NMR chemical shift reference and internal standard. The samples were centrifuged at 15,000×g for 20 minutes at 4° C. to remove any particulates, and the supernatant was transferred to 1.7 mm NMR tube for data acquisition. All NMR experiments were collected at 298K with a Bruker AVANCE III HD 700 MHz spectrometer equipped with a 5 mm quadruple resonance QCI-P cryoprobe (^1H, ^13C, ^15N and ^31P) with z-axis gradients. A SampleJet automated sample changer with Bruker ICON-NMR software was used to collect all data. […]

`NCCCNCCSP(=O)(O)O` [amifostine, 2-(3-aminpropyl) aminoethylphosphorothioate] was tested, and the “survival at 30 days post-irradiation” value ([1]; amifostine 50 mg/kg subcutaneous, 30 minutes before 9.6 Gy, untreated irradiated animals 100% died) was 40%, the “day at which incremental decrease in survival began” value ([1]; amifostine 50 mg/kg, 9.6 Gy) was 11 days and the “animal survival 30 days post-irradiation” value ([1]; amifostine 200 mg/kg subcutaneous, 30 minutes prior to 9.6 Gy, untreated irradiated animals 100% died) was 100%. The “NMR metabolic time trajectory of whole blood after radiation” value ([2]; amifostine 50 mg/kg, 9.6 Gy) was “could not be discriminated from untreated controls”, the “NMR metabolic time trajectory of whole blood after radiation” value ([2]; amifostine 200 mg/kg, 9.6 Gy, p=1.60×10^−7) was “reversed progression back towards the baseline norm (D−5) by D9” and the “recovery of dysregulated metabolic pathways” value ([2]; amifostine 200 mg/kg, between D5 and D9 after radiation exposure) was “recovery of pathways including lipid metabolism, glycolysis, and TCA activity as well as energy and amino acid metabolism”. The “LC-MS metabolic time trajectory of whole blood after radiation” value ([2]; amifostine treatment, 9.6 Gy, p=2.10×10^−2) was “divergence of trajectories from D5 to D9”.
